Experimental data as given in patent publication US20260124223A1, “CANCER IMMUNOTHERAPIES” (Northwestern University, priority 2022, published 2026).
“And” between values parts separate entries of the source, which are not always exact repeats. Equal entries are not always repeated. Where two headings read alike, the source gives them in different places.

Columns and labels:
HMC3 cells = experiment: Flow cytometry of IFNγ, HLA ABC and PD-L1 in HMC3 cells; format: cell-based, human; details: 5-hour pulse, 72 hours, specific DOX concentrations
Method: (§1) Flow cytometry of PDX cell lines and HMC3 cells. PDX cell lines were kindly gifted. HMC3 cells were acquired from ATCC. GBM6, GBM63 and HMC3 cells were seeded on 6-well plates for treatment with increasing concentrations of DOX hydrochloride (D1515, Sigma Aldrich), IFN-γ (300-02, Peprotech) or 50 μM of TMZ (Accord). PDX and HMC3 cells were treated for 5 hours followed by 3 washes with PBS and cultured afterwards with Dulbecco's modified Eagle's medium (Corning) supplemented with 10% FBS (Hyclone) and 1% penicillin/streptomycin (Corning). 72 hours after treatment, PDX cells were harvested using Accutase cell detachment solution (Corning) and were stained initially with eBioscience Fixable Viability Dye eFluor 780 (Thermo Fisher) at 1:1000 dilution. Staining with HLA ABC AF-647 (311414) and HLA-DR BV421 (307636) was done for PDX cells. IFN-γ AF-700 (502520), HLA ABC FITC (311404), PD-L1 Pe-Cy7 (374506). All antibodies for this experiment were from Biolegend. Data was acquired using BD FACSymphony Flow Cytometer.

GBM63 = experiment: Flow cytometry of antigen-presenting molecules in PDX cell line GBM63; format: cell-based, human; details: 5 hours exposure, 72 hours drug-free
Method: as §1

GL261 = experiment: H-2Kb expression in GL261 cells by flow cytometry; format: cell-based, mouse; details: similar DOX concentration range, compared to no treatment
GL261-bearing mice [1] = experiment: Survival of GL261-bearing mice treated with liposomal DOX, aPD-1, US/MB; format: in vivo, mouse
Method: (§2) Ultrasound-mediated BBB opening in mouse models.
(§3) Cell lines and implantable syngeneic murine glioma models for survival and immunophenotyping studies. Murine GL261 cell line was acquired from the National Institutes of Health. CT2A cell line was acquired from Millipore. GL261 and CT2A were cultured in Dulbecco's modified Eagle's medium (Corning) supplemented with 10% FBS (Hyclone) and 1% penicillin/streptomycin (Corning) at 37° C. in incubators with humified atmosphere of 5% CO2 and 95% air.
(§4) After injection of glioma cells, the incision was closed using 9 mm stainless steel wound clips. On day 7 and 14 after IC implantation of glioma cell lines, mice were treated with liposomal DOX obtained from the pharmacy of Northwestern Memorial Hospital. On day 7, 10, 14, and 17 after IC injection of glioma cells, mice were treated with either […] of anti-mouse PD-1 (CD279) BE0146 (BioXcell) or rat IgG2a isotype control BE0089 (BioXcell).

[2] = DOX concentration in blood, tumor and peritumoral brain tissue of GBM patients (LC/MS); format: in vivo, human; details: for concentration at 48 h: human, intravenous, GBM patients, 48 hours after liposomal DOX with US/MB
Method: (§5) Patients received additional treatment cycles with sonications in an outpatient setting in which the US device was activated by percutaneous access with a single-use transdermal needle concomitantly with the injection of 10 μL/kg of IV microbubbles (DEFINITY, Lantheus, Billerica, USA) and 200 mg of pembrolizumab and 30 mg of liposomal DOX.
Determination of the DOX concentration in blood, tumor and peritumoral brain tissue. Two GBM patients undergoing surgery for resection of tumor with implantation of the Sonocloud-9 US device were studied for this analysis. […] Sonicated and non-sonicated peritumoral brain samples were identified taking into account their location relative to the sonication field of the US device. Non-sonicated peritumoral brain samples were acquired first with the use of a new set of surgical instruments for each sample. Every peritumoral brain tissue was washed with saline solution to remove blood. These samples were sectioned into 30 mg pieces and were flash-frozen for further quantification of DOX levels. DOX was quantified in tumor, peritumoral, and plasma using LC/MS (6500 QTRAP AB Sciex equipped with a SIL-20AC XR HPLC, Shimadzu Scientific Instruments).

CT2A-bearing mice = experiment: Survival of CT2A-bearing mice treated with aPD-1, liposomal DOX, US/MB; format: in vivo, mouse
Method: as §2, §3, §4

CT2A = experiment: H-2Kb expression in CT2A cells by flow cytometry; format: cell-based, mouse; details: similar DOX concentration range, compared to no treatment
GL261 tumor-bearing mice = details: LIPU/MB+IC+DOX
Method: Cell culture. […] Both cell lines were cultured in Dulbecco's modified Eagle's medium (Gibco) supplemented with 10% fetal bovine serum (Gibco), and 1% penicillin/streptomycin (Gibco) in 5% CO2 incubators at 37° C. […] QPP4 cells were maintained in Dulbecco's modified Eagle's medium/F-12 (Gibco) supplemented with B-27 (Gibco), recombinant epidermal growth factor (EGF, 20 ng/ml, PeproTech), and recombinant basic fibroblast growth factor (bFGF, 20 ng/ml, PeproTech).
Animal Experiments. […] All murine cell lines used for this study were routinely tested for mycoplasma and were confirmed negative before intracranial orthotopic injection. To perform intracranial injection of syngeneic murine glioma cell lines, mice were anesthetized with ketamine/xylazine cocktail. Artificial tears were used to prevent eye drying and protect the eye. […] Mice were monitored daily and were euthanized when they approached the endpoint (weight loss is >20% of pre-treatment body weight or loss of mobility or severe neurological disabilities such as seizure, circular motion, etc.) as described in the IACUC protocol.
LIPU/MB. […] Sonications were performed for 120 seconds using a 25,000-cycle burst at a 1 Hz pulse repetition frequency and an acoustic pressure of 0.3 MPa as measured in water. After sonications, mice were moved to a clean cage, placed upon a heating pad, and monitored until they recovered from anesthesia.

recurrent GBM patients [3] = experiment: Multiplex immunofluorescence of pre-treatment and on-treatment human GBM samples; details: tumors exposed to DOX vs before DOX
GL261-bearing mice [4] = experiment: Immunophenotyping of GL261-bearing mice treated with increasing doses of liposomal DOX with or without US/MB; format: in vivo, mouse; details: 1 and 2 mg/kg; 5 mg/kg without US/MB
Method: as §2, §4

GBM6 = experiment: Flow cytometry of antigen-presenting molecules in PDX cell line GBM6; format: cell-based, human; details: 5 hours exposure, 72 hours drug-free, relative to no treatment
Method: as §1

recurrent GBM patients [5] = experiment: Multiplex immunofluorescence of FcγRIIIA on TAMs, pre-DOX and during-DOX GBM samples; format: in vivo, human; details: DOX+aPD-1 with concomitant LIPU/MB, vs tissue before treatment, 4 patients
Description: Multiplex immunofluorescence staining/cellular identification and phenotyping. The multiplex panel included the following unconjugated antibodies: GFAP (glioma cells), CD11c (antigen presenting cells), CD68 (pan monocyte/macrophage), CD163 (macrophage scavenger receptor), FcγRIIIA (Receptor binding the Fc region of IgG, CD16A). All antibodies were validated using conventional immunofluorescence (IF) staining in conjunction with the corresponding fluorophore and the spectral 4′,6-diamidino-2-pheynlindole (DAPI; ThermoFisher Scientific) counterstain. For optimal concentration and best signal/noise ratio all antibodies were tested at three different dilutions, starting with the manufacturer-recommended dilution (MRD), then MRD/2 and MRD/4. Secondary Alexa fluorophore 555 (ThermoFisher Scientific) and Alexa fluorophore 647 (ThermoFisher Scientific) were used at 1/200 and 1/400 dilutions respectively. […]
Slides are automatically scanned using the Lunaphore COMET™ with fluorescent high-power field scan (20× magnification microscope). […] The OME.TIFF images ware analyzed in Visiopharm software for immune populations' configuration and quantification.
All digitized images were analyzed using the Visiopharm software platform (Hørsholm, Denmark). […]

HMC3 = experiment: FCGR3A / FcγRIIIA expression in HMC3 cells (qRT-PCR, flow cytometry); format: cell-based, human; details: DOX 5 hours, fresh media 72 hours
Method: as §1

[6] = tested on: brain metastases from melanoma; experiment: Tumor volume in a melanoma brain metastasis patient, SonoCloud-1 (NCT04021420); format: in vivo, human
Description: Analysis of SoniMel tumor volume of a brain metastatic patient. This patient was part of an ongoing clinical trial (NCT04021420) evaluating the combination of the immune checkpoint antibodies, ipilimumab and nivolumab, with BBB disruption employing the SC1 US device. The zone targeted by the skull implanted SC1 US emitter was modeled with a cylindrical region of interest (ROI) with a 10-mm diameter and 55-mm length. This ROI covered a part of the left-hemisphere tumoral mass and a part of its margin. The patient received administration every three weeks of 1 mg/kg of nivolumab (Brystol Myers Squibb) during 30 minutes of infusion and 3 mg/kg of ipilimumab (Brystol Myers Squibb) during 90 minutes of infusion prior to sonication. The SC1 US device was activated in combination with IV injection of microbubbles (0.1 mL/kg, SonoVue, Bracco) for a duration of 270 seconds at an acoustic pressure of 0.78 MPa, similar to the parameters used in a recent clinical trial in patients with recurrent GBM (Idbaih, A., et al., Clin Cancer Res 25, 3793-3801 (2019)). The evolution of the tumor volumes was evaluated for both sonicated and non-sonicated tumor masses using a semiautomatic active contour segmentation method (ITK Snap) (Yushkevich, P. A., et al., Neuroimage 31, 1116-1128 (2006)) using contrast-enhanced gadolinium T1w MR images with a threshold set at 1.25 times the median brain intensity. […]

[7] = mouse, in vivo
Method: C57BL/6 mice were employed for sonication experiments in which they were anesthetized with ketamine/xylazine cocktail intraperitoneally (ketamine 100 mg/kg, xylazine 10 mg/kg).
Determination of the concentration of nivolumab in brain from C57BL/6 mice. Non-tumor bearing C57BL/6 mice were used for this experiment. […] Nivolumab ELISA kit (ab237651, Abcam) was employed to determine nivolumab concentrations in the brain and blood. Mice were anesthetized with ketamine/xylazine cocktail and treated with artificial tears once fully anesthetized. Next, mice were treated with nivolumab through retro-orbital route. The dose used for mice was calculated based on allometric scaling which considers the animal equivalent dose based on body surface area converted from the human dose of 3 mg/kg of nivolumab (Nair, A. B. et al., J Basic Clin Pharm 7, 27-31 (2016)). After treatment with nivolumab, mice were placed in the US transducer holder for sonication as described above. Intravenous NaFI (Sigma-Aldrich) previously dissolved in PBS was administered immediately after sonication at a dose of 20 mg/kg in 100 μL. 1 and 4 hours after sonication, mice were euthanized using a CO2 chamber and brains were harvested and placed in PBS. […] Absorbance of samples (set to 450 nm) was read in Cytation 5 multi-mode reader (Biotek). […]

[8] = Pembrolizumab concentration in plasma, glioma and peritumoral brain of GBM patients (ELISA); format: in vivo, human
Method: as §5
Determination of the concentration of pembrolizumab in human glioma and peritumoral brain tissue Two GBM patients undergoing surgery for resection of tumor with implantation of the Sonocloud-9 US device were studied for this analysis. Pembrolizumab ELISA kit (ab237652, Abcam) was employed to determine pembrolizumab concentrations. After surgical resection, all samples were weighed. […] The rest of the experiment was done following manufacturer's kit protocol.

With `COc1cccc2c1C(=O)c1c(O)c3c(c(O)c1C2=O)C[C@@](O)(C(=O)CO)C[C@@H]3O[C@H]1C[C@H](N)[C@H](O)[C@H](C)O1` [DOX, Doxorubicin] the “expression of HLA ABC” value (HMC3 cells) was “promoted”, the “expression of PD-L1” value (HMC3 cells) was “promoted” and the “production of IFNγ” value (HMC3 cells) was “promoted”. For the same compound, the “DOX concentration range that upregulated HLA ABC and HLA-DR expression” value (GBM63) was 0.15 to 0.6 M, the H-2Kb expression (GL261) was “upregulated” and the “percentage of CD4 IFN-γ+ TNF-α+ T cells” value (GL261-bearing mice [1]; DOX alone vs control, P=0.04) was “higher percentage”. The long-term survivors (GL261-bearing mice [1]; GL261, anti-PD-1 antibody added to DOX plus US/MB, vs DOX plus US/MB) was “same percentage of long-term survivors”, the “fold increase in DOX concentration, sonicated relative to non-sonicated peritumoral brain samples” value ([2]; 2 GBM patients, 48 hours, 95% CI of mean 1.406-2.659) was 2.033 fold and the concentration at 48 h ([2]; plasma, read-out: DOX plasma levels) was 8230 ng/mL and 14.2 µM. The concentration at 48 h ([2]; tumor, read-out: DOX tumor concentrations) was 146 ng/g to 2290 ng/g and 251 nM to 3.94 µM, the “survival in Cd8−/− and Cd8+/+ mice” value (CT2A-bearing mice; DOX plus anti-PD-1 antibody with US/MB, P=0.0452) was “survival benefit was only observed in mice that had intact immunity” and the long-term survival percentage (CT2A-bearing mice; anti-PD-1 antibody added to DOX plus US/MB) was 80%. For the same compound, the H-2Kb expression (CT2A) was “upregulated”, the long-term survivors (GL261 tumor-bearing mice) was 16.7% and the “TMEM119+ cells expressing HLA I” value (recurrent GBM patients [3]; P=0.0092) was “increased number”. The “CD163+ cells expressing HLA I” value (recurrent GBM patients [3]; P=0.0712) was “increased number”, the “IFN-γ by glioma-associated myeloid cells” value (GL261-bearing mice [4]) was “no other doses of DOX nor the 5 mg/kg of dose delivered in the absence of US/MB elicited IFN-γ” and the “DOX concentration range that upregulated HLA ABC and HLA DR expression” value (GBM6) was 0.15 to 1.2 M. The “frequency of FcγRIIIA+ CD68+ and CD11c+ TAMs” value (recurrent GBM patients [5]) was “increase in the frequency” and the “FCGR3A expression, times higher than in untreated microglia” value (HMC3) was ~16 times.
For “ipilimumab: IgG1 anti-CTLA-4 antibody, given with nivolumab”, the “tumor mass targeted by the SonoCloud-1 (sonicated)” value ([6]; ipilimumab 3 mg/kg and nivolumab 1 mg/kg prior to sonication) was “began to shrink after the second sonication” and the non-sonicated tumor mass ([6]; ipilimumab 3 mg/kg and nivolumab 1 mg/kg, until GammaKnife on day 130) was “continued to grow”.
In the case of “nivolumab: human IgG4 antibody that binds the PD-1 receptor”, the “nivolumab concentration in the plasma” value [7] is reported as “similar”.
For pembrolizumab: anti-PD-1 antibody, the “fold increase in pembrolizumab concentration, sonicated vs non-sonicated peritumoral brain regions” value ([8]; 2 GBM patients, SonoCloud-9) was 2.076 fold and the “anti-PD-1 antibody concentration in the serum” value ([8]; two GBM patients, 48 hours after treatment) was 39.450 µg/mL and 45.099 µg/mL.
